System: STAT5 Y694 phosphorylation
Test: Protein electrophoresis and blotting of STAT5 Y694 phosphorylation in Jurkat cells stimulated with human interferon beta
Type: cell-based
Details: for Inhibiting Ratio (0% for vehicle control): 1 hour pretreatment, 20 ng/ml human interferon beta 30 minutes, pSTAT5/GAPDH; for Example of Effect 1: Inhibiting Ability (Protein Electrophoresis and Blotting): observed pSTAT5 bands at 10 μM and 100 μM
Method: Example of Effect 1: Protein Electrophoresis and Blotting Experiment
Standard protein electrophoresis and chemiluminescence imaging equipment (Bio-Rad);
Protein lysate RIPA (Lianke Biological; Cat #WB020); Western blot transfer membrane PVDF (Millipore; Cat #IPVH00010);
Jurkat cells (ATCC American Standard Culture Center, TIB152) were cultured in a 6-well plate at a density of 1×10^6/ml with RPMI medium […] 10% fetal bovine serum in a humidified incubator at 37° C. and maintained at 5% carbon dioxide overnight. On the second day, the cells were pretreated with compounds of different concentrations (the mother liquor of the compound prepared by dimethyl sulfoxide was diluted in the medium at the required concentration) for 1 hour, and then stimulated with 20 ng/ml human interferon beta for 30 minutes, it was mixed thoroughly and then placed in an incubator at 37° C. environment. […] Then an appropriate volume of RIPA Lysis Solution was added, it was mixed well, and placed on ice for 1 hour, inverted and mixed several times in the middle. Then, the cell lysate was centrifuged at 12000 rpm at 4° C. for 10 minutes, and the supernatant was transferred to another test tube, aliquoted and stored at −20° C. until use.
An equal volume of protein lysate was mixed with an appropriate 6-fold protein loading buffer (Biyun Tian Biochemical Company P0015F), and the mixture was heated at 95 degrees for 10 minutes, after full denaturation, the protein sample was added to the polyacrylamide gel (self-made, raw material purchased from Soleibao Biotechnology Company A1010, 30% acrylamide solution), and electrophoresis was performed at the appropriate voltage for 1 hour, until the strips were fully separated. It was transferred to a polyvinylidene fluoride membrane according to standard procedures, and blocked with 5% skim milk for 1 hour, and the specified antibody was added, and it was diluted 1:1000 in 3% bovine serum albumin, and it was incubated overnight for four degrees. It was thoroughly rinsed, incubated with the secondary antibody, exposed to chemiluminescence and signals were collected. ImageJ software was used to quantify the obtained chemiluminescence results. The same area was selected, the gray values of STAT5 phosphorylation band and GAPDH band of each sample were analyzed, and the ratio of pSTAT5/GAPDH level was calculated. The value of the solvent-treated sample was 100%, and the remaining samples were converted into relative data in the same proportion, that is, the percentage corresponding to the solvent sample. […] The solvent control group was the same as the test compound group except that DMSO was used instead of the DMSO solution of the test compound. N1 (Pimozide) was a specific positive control.

Row | SMILES | Inhibiting Ratio (0% for vehicle control) (1 μM) [%] | Inhibiting Ratio (0% for vehicle control) (10 μM) [%] | Inhibiting Ratio (0% for vehicle control) (100 μM) [%] | Example of Effect 1: Inhibiting Ability (Protein Electrophoresis and Blotting)
1 | O=c1[nH]c2ccccc2n1-c1ccn2c(=O)cc(Cc3ccc(F)cc3)cc2c1 [Example X9, 2-(4-fluorobenzyl)-8-(2-oxo-2,3-dihydro-1H-benzo[d]imidazol-1-yl)-4H-quinazine-4-one] | 6.0 | 44.3 | 100.0 | +
2 | O=C(Cc1ccc(C(F)(F)F)o1)N1CCC(n2c(=O)[nH]c3ccccc32)CC1 [GEN1-078, 1-(1-(2-(5-(trifluoromethyl)furan-2-yl)acetyl)piperidin-4-yl)-1H-benzo[d]imidazol-2(3H)-one] |  |  |  | +
3 | O=C(Cc1ccc(C(F)(F)F)cc1)N1CCC(n2c(=O)[nH]c3ncccc32)CC1 [GEN1-041, 1-(1-(2-(4-(trifluoromethyl)phenyl)acetyl)piperidin-4-yl)-1H-imidazo[4,5-b]pyridine-2(3H)-one] |  |  |  | +
4 | Cc1ccc(CC(=O)N2CCC(n3c(=O)[nH]c4ccccc43)CC2)cc1 [Example X7, 1-(1-(2-(p-tolyl)acetyl)piperidin-4-yl)-1H-benzo[d]imidazole-2(3H)-one] | −27.9 | −13.6 | 88.5 | −
5 | N#Cc1ccc2c(c1)[nH]c(=O)n2C1CCN(C(=O)Cc2ccc(C(F)(F)F)cc2)CC1 [GEN1-006, 2-oxo-1-(1-(2-(4-(trifluoromethyl)phenyl)acetyl)piperidin-4-yl)-2,3-dihydro-1H-benzo[d]imidazole-5-carbonitrile] | −2.8 | 35.7 | 94.8 | +
6 | COc1cccc2c1[nH]c(=O)n2C1CCN(C(=O)Cc2ccc(C(F)(F)F)cc2)CC1 [GEN1-003, 4-methoxy-1-(1-(2-(4-(trifluoromethyl)phenyl)acetyl)piperidin-4-yl)-1H-benzo[d]imidazole-2(3H)-one] | −10.8 | 22.2 | 94.1 | +
7 | O=C(Cc1ccc(C(F)(F)F)cc1)N[C@H]1C[C@H](n2c(=O)[nH]c3ccccc32)C1 [GEN1-025, N-((1r,3r)-3-(2-oxo-2,3-dihydro-1H-benzo[d]imidazol-1-yl)cyclobutyl)-2-(4-(trifluoromethyl)phenyl)acetamide] |  |  |  | −
8 | COc1ccc2c(c1)[nH]c(=O)n2C1CCN(C(=O)Cc2ccc(C(F)(F)F)cc2)CC1 [GEN1-007, 5-methoxy-1-(1-(2-(4-(trifluoromethyl)phenyl)acetyl)piperidin-4-yl)-1H-benzo[d]imidazole-2(3H)-one] | 42.4 | 54.8 | 96.6 | +
9 | O=c1oc2ccccc2n1-c1ccn2c(=O)cc(Cc3ccc(F)cc3)cc2c1 [Example P9, 3-(2-(4-fluorobenzyl)-4-oxo-4H-quinazine-8-yl)benzo[d]oxazole-2(3H)-one] |  |  |  | −
10 | O=C(Cc1ccc(-c2ccccc2)cc1)N1CCC(n2c(=O)[nH]c3ccccc32)CC1 [GEN1-033, 1-(1-(2-([1,1′-biphenyl]-4-yl)acetyl)piperidin-4-yl)-1H-benzo[d]imidazole-2(3H)-one] | 12.8 | 7.6 | 98.0 | +
11 | O=C(O)c1ccc(CC(=O)N2CCC(n3c(=O)[nH]c4ccccc43)CC2)cc1 [Example X6, 4-(2-oxo-2-(4-(2-oxo-2,3-dihydro-1H-benzo[d]imidazol-1-yl)piperidine-1-yl)ethyl)benzoic acid] |  |  |  | −
12 | O=c1[nH]c2ccccc2n1C1CCN(S(=O)(=O)Cc2ccc(C(F)(F)F)cc2)CC1 [GEN1-068, 1-(1-((4-(trifluoromethyl)benzyl)sulfonyl)piperidin-4-yl)-1H-benzo[d]imidazol-2(3H)-one] |  |  |  | −
13 | O=C(Cc1ccc(C(F)(F)F)cc1)N[C@H]1CC[C@H](n2c(=O)[nH]c3ccccc32)CC1 [GEN1-022, Trans-N-(4-(2-oxo-2,3-dihydro-1H-benzo[d]imidazol-1-yl)cyclohexyl)-2-(4-(trifluoromethyl)phenyl)acetamide] | 15.8 | 29.5 | 81.2 | −
14 | CN(C)c1ccc(CC(=O)N2CCC(n3c(=O)[nH]c4ccccc43)CC2)cc1 [GEN1-097, 1-(1-(2-(4-(dimethylamino)phenyl)acetyl)piperidin-4-yl)-1H-benzo[d]imidazol-2(3H)-one] |  |  |  | +
15 | O=C(Cc1ccc(C(F)(F)F)cc1)N1CCC(n2c(=O)c(=O)[nH]c3ccccc32)CC1 [GEN1-127, 1-(1-(2-(4-(trifluoromethyl)phenyl)acetyl)piperidin-4-yl)-1,4-dihydroquinoxaline-2,3-dione] |  |  |  | +
16 | O=C(Cc1ccc(C(F)(F)F)cc1)N[C@H]1C[C@@H](n2c(=O)[nH]c3ccccc32)C1 [GEN1-024, N-((1s,3s)-3-(2-oxo-2,3-dihydro-1H-benzo[d]imidazol-1-yl)cyclobutyl)-2-(4-(trifluoromethyl)phenyl)acetamide] |  |  |  | −
17 | CCC(=O)N1CCC(n2c(=O)oc3ccccc32)CC1 [Example P1, 3-(1-propionylpiperidin-4-yl)benzo[d]oxazole-2(3H)-one] |  |  |  | −
18 | N#Cc1ccc2[nH]c(=O)n(C3CCN(C(=O)Cc4ccc(C(F)(F)F)cc4)CC3)c2c1 [GEN1-010, 2-oxo-3-(1-(2-(4-(trifluoromethyl)phenyl)acetyl)piperidin-4-yl)-2,3-dihydro-1H-benzo[d]imidazole-5-carbonitrile] | −29.0 | 17.5 | 94.8 | +
19 | NC(=O)c1cccc2[nH]c(=O)n(C3CCN(C(=O)Cc4ccc(C(F)(F)F)cc4)CC3)c12 [GEN1-095, 2-oxo-3-(1-(2-(4-(trifluoromethyl)phenyl)acetyl)piperidin-4-yl)-2,3-dihydro-1H-benzo[d]imidazol-4-carboxamide] |  |  |  | −
20 | O=C1CN(C2CCN(C(=O)Cc3ccc(C(F)(F)F)cc3)CC2)c2c(cccc2[N+](=O)[O-])N1 [GEN1-101, 5-nitro-4-(1-(2-(4-(trifluoromethyl)phenyl)acetyl)piperidin-4-yl)-3,4-dihydroquinoxaline-2(1H)-one] |  |  |  | +
21 | O=C(Nc1ccccn1)NC1CCN(C(=O)Cc2ccc(C(F)(F)F)cc2)CC1 [GEN1-163, 1-(pyridin-2-yl)-3-(1-(2-(4-(trifluoromethyl)phenyl)acetyl)piperidin-4-yl)urea] |  |  |  | −
22 | O=C(Cc1ccc(C(F)(F)F)cc1)N1CCC(N2c3ccccc3NS2(=O)=O)CC1 [GEN1-054, 1-(4-(2,2-dioxybenzo[c] [1,2,5]thiadiazole-1(3H)-yl)piperidin-1-yl)-2-(4-(trifluoromethyl)phenyl)ethenone] |  |  |  | −
23 | N#CNc1nc2ccccc2n1C1CCN(C(=O)Cc2ccc(C(F)(F)F)cc2)CC1 [GEN1-061] |  |  |  | +

Source: patent US20230099441A1, “HETEROCYCLIC COMPOUND, APPLICATION THEREOF, AND COMPOSITION CONTAINING SAME” (GenEros Biopharma Ltd., priority 2019, published 2023)
